The subject of the assay is Epo protein produced by Hep3B cell line. Put plainly: Epo protein produced by Hep3B cell line using ELISA method. The format is cell-based. The following applies: Homo sapiens; Hep3B cells, 48 hours incubation, DMEM without serum; maximum concentration tested 100 micromolar; range stated jointly for ELISA and AlphaLISA. On the procedure: Measure Epo Protein Produced by Hep3B Cell Line Using ELISA Method.
Hep3B cells obtained from the American Type Culture Collection (ATCC) are seeded at 2×10^4 cells/well in Dulbecco's Modified Eagle Medium (DMEM)+10% FBS in 96-well plates. Cells are incubated at 37 deg C./5% CO2/90% humidity (standard cell culture incubation conditions). After overnight adherence, medium is removed and replaced with DMEM without serum containing test compound or DMSO negative control. Following 48 hours incubation, cell culture medium is collected and assayed by ELISA to quantitate Epo protein.
(In general: In an ELISA, binding on a coated surface is turned into a signal by an enzyme label.)

Consider one compound from patent publication USRE44613E1, “N-substituted glycine derivatives: hydroxylase inhibitors” (GlaxoSmithKline LLC, priority 2007, dated 2013).

What is called EC50 is the concentration giving half of the maximal effect. Lower therefore signals a more potent agent. As for `CC(C)(C)c1ccc(Cn2nc(-c3ccc(C(C)(C)C)cc3)c(O)c(C(=O)NCC(=O)O)c2=O)cc1` [Example 26, N-[(6-[4-(1,1-Dimethylethyl)phenyl]-2-{[4-(1,1-dimethylethyl)phenyl]methyl}-5-hydroxy-3-oxo-2,3-dihydro-4-pyridazinyl)carbonyl]glycine], the EC50 was greater than 100 µM.
